IC50 data for 21 molecules are collected here from patent publication US8445674B2, “Heterocyclyl compounds” (Hoffmann-La Roche Inc, priority 2009, dated 2013).

One may read the IC50 as the midpoint of a concentration-inhibition curve.

The target in this assay is T1, human chemokine receptor 2 isoform B (Homo sapiens, UniProt P41597).
T1 construct: host or cells: CHOK1-CCR2B-A5 cells (CHO-K1)
T1 sequence (P41597 1-360 isoform P41597-2): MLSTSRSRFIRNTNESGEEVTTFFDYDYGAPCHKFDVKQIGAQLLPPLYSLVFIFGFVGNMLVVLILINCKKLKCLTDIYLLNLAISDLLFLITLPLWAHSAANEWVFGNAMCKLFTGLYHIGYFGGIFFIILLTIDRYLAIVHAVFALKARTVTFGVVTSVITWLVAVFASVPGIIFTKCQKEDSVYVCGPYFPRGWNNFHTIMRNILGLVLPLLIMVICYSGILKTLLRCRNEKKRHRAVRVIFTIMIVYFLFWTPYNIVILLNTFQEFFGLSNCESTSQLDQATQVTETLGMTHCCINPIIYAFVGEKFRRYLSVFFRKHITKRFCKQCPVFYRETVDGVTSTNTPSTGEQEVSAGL
Kind of assay: Calcium mobilization assay (FLIPR, antagonist activity against MCP-1). In kind it is cell-based. As to conditions: Ca mobilisation assay, CHOK1-CCR2B-A5 cells, inhibition of calcium increase induced by 20 nM MCP-1. How it is done:
Calcium Mobilization Assay
CHOK1-CCR2B-A5 cells (from Euroscreen) stably overexpressing the human chemokine receptor 2 isoform B were cultured in Nutrient Hams F12 medium supplemented with 5% FBS, 100 U/ml penicillin, 100 μg/ml streptomycin, 400 μg/ml G418 and 5 μg/ml puromycin.
For the assay cells were grown overnight in 384-well black clear flat bottom polystyrene plates (Costar) at 37° C. at 5% CO2. After washing with DMEM, 20 mM Hepes, 2.5 mM probenecid, 0.1% BSA (DMEM assay buffer) cells were loaded with 4 μM Fluo-4 in the same DMEM assay buffer for 2 hours at 30° C. Excess dye was removed and cells were washed with DMEM assay buffer. 384-well compound plates were prepared with DMEM assay buffer/0.5% DMSO with or without various concentrations of test compounds. Usually compounds were tested for agonist and antagonist activity.
Test compounds were added to the assay plate and agonist activity was monitored as fluorescence for 80 seconds with a FLIPR (488 nm excitation; 510-570 nm emission; Molecular Devices). After 20-30 min. of incubation at 30° C., 20 nM MCP-1 (R&D; Roche) was added and fluorescence was monitored again for 80 seconds. Increases in intracellular calcium are reported as maximum fluorescence after agonist exposure minus basal fluorescence before exposure. Antagonist activity is indicated as inhibitor concentration required for 50% inhibition of specific calcium increases.
Take `C[C@H]1C(=O)N(CCCC(=O)N2CCC3(CC3)[C@H](O)C2)CCN1C(=O)Nc1cccc(C(F)(F)F)c1` [Example 28, (S)-4-[4-((S)-4-Hydroxy-6-aza-spiro[2.5]oct-6-yl)-4-oxo-butyl]-2-methyl-3-oxo-piperazine-1-carboxylic acid (3-trifluoromethyl-phenyl)-amide]: the half-inhibitory concentration (IC50) came to 54.9 nM. With `C[C@H]1C(=O)N(CCCC(=O)N2CCC3(CC3)[C@H](O)C2)CCN1C(=O)Nc1ccc(C(F)(F)F)cc1` [Example 29, (S)-4-[4-((S)-4-Hydroxy-6-aza-spiro[2.5]oct-6-yl)-4-oxo-butyl]-2-methyl-3-oxo-piperazine-1-carboxylic acid (4-trifluoromethyl-phenyl)-amide] the figure was 20.6 nM. For `C[C@H]1C(=O)N(CCCC(=O)N2CCC3(CC3)[C@H](O)C2)CCN1C(=O)Nc1ccc(OC(F)(F)F)cc1` [Example 30, (S)-4-[4-((S)-4-Hydroxy-6-aza-spiro[2.5]oct-6-yl)-4-oxo-butyl]-2-methyl-3-oxo-piperazine-1-carboxylic acid (4-trifluoromethoxy-phenyl)-amide] the value was 20.4 nM; for `C[C@H]1C(=O)N(CCCC(=O)N2CCC3(CC3)[C@H](O)C2)CCN1C(=O)Nc1cccc(OC(F)(F)F)c1` [Example 31, (S)-4-[4-((S)-4-Hydroxy-6-aza-spiro[2.5]oct-6-yl)-4-oxo-butyl]-2-methyl-3-oxo-piperazine-1-carboxylic acid (3-trifluoromethoxy-phenyl)-amide], 51 nM; for `C[C@H]1C(=O)N(CCCC(=O)N2CCC3(CC3)[C@H](O)C2)CCN1C(=O)Nc1ccc(Cl)c(C(F)(F)F)c1` [Example 32, (S)-4-[4-((S)-4-Hydroxy-6-aza-spiro[2.5]oct-6-yl)-4-oxo-butyl]-2-methyl-3-oxo-piperazine-1-carboxylic acid (4-chloro-3-trifluoromethyl-phenyl)-amide], 5.9 nM.

Regarding `C[C@H]1C(=O)N(CCCC(=O)N2CCC3(CC3)[C@H](O)C2)CCN1C(=O)Nc1ccc(C(F)(F)F)c(Cl)c1` [Example 33, (S)-4-[4-((S)-4-Hydroxy-6-aza-spiro[2.5]oct-6-yl)-4-oxo-butyl]-2-methyl-3-oxo-piperazine-1-carboxylic acid (3-chloro-4-trifluoromethyl-phenyl)-amide], the 50% inhibitory concentration (IC50) was determined as 4.4 nM. With `C[C@H]1C(=O)N(CCCC(=O)N2CCC3(CC3)[C@H](O)C2)CCN1C(=O)Nc1ccc(OC(F)(F)F)c(Cl)c1` [Example 34, (S)-4-[4-((S)-4-Hydroxy-6-aza-spiro[2.5]oct-6-yl)-4-oxo-butyl]-2-methyl-3-oxo-piperazine-1-carboxylic acid (3-chloro-4-trifluoromethoxy-phenyl)-amide] the figure was 1.7 nM. For the molecule `C[C@H]1C(=O)N(CCCC(=O)N2CCC3(CC3)[C@H](O)C2)CCN1C(=O)Nc1ccc(Cl)c(OC(F)(F)F)c1` [Example 35, (S)-4-[4-((S)-4-Hydroxy-6-aza-spiro[2.5]oct-6-yl)-4-oxo-butyl]-2-methyl-3-oxo-piperazine-1-carboxylic acid (4-chloro-3-trifluoromethoxy-phenyl)-amide], the 50% inhibitory concentration (IC50) was found to be 4.9 nM. With `C[C@H]1C(=O)N(CCCC(=O)N2CCC3(CC2)COC3)CCN1C(=O)Nc1cccc(Cl)c1` [Example 36, (S)-2-Methyl-4-[4-(2-oxa-7-aza-spiro[3.5]non-7-yl)-4-oxo-butyl]-3-oxo-piperazine-1-carboxylic acid (3-chloro-phenyl)-amide], the half-maximal inhibitory concentration (IC50) worked out at 2340 nM.

For `C[C@H]1C(=O)N(CCCC(=O)N2CCC(C)(C)[C@H](O)C2)CCN1C(=O)Nc1ccc(Cl)c(Cl)c1` [Example 38, (S)-4-[4-((S)-3-hydroxy-4,4-dimethyl-piperidin-1-yl)-4-oxo-butyl]-2-methyl-3-oxo-piperazine-1-carboxylic acid (3,4-dichloro-phenyl)-amide], the IC50 worked out at 21.9 nM.

Take `C[C@H]1C(=O)N(CC(O)CC(=O)N2CCC3(CC3)[C@H](O)C2)CCN1C(=O)Nc1ccc(Cl)c(Cl)c1` (stereo partly drawn) [Example 40, (S)-4-[(R,S)-2-Hydroxy-4-((S)-4-hydroxy-6-aza-spiro[2.5]oct-6-yl)-4-oxo-butyl]-2-methyl-3-oxo-piperazine-1-carboxylic acid (3,4-dichloro-phenyl)-amide]: the IC50 was found to be 7.6 nM. With `C[C@H]1C(=O)N(CC(O)CC(=O)N2CCC3(CC3)[C@H](O)C2)CCN1C(=O)Nc1ccc(C(F)(F)F)c(Cl)c1` (stereo partly drawn) [Example 41, (S)-4-[(R,S)-2-Hydroxy-4-((S)-4-hydroxy-6-aza-spiro[2.5]oct-6-yl)-4-oxo-butyl]-2-methyl-3-oxo-piperazine-1-carboxylic acid (3-chloro-4-trifluoromethyl-phenyl)-amide] the figure was 5.6 nM.

As to `C[C@H]1C(=O)N(C[C@@H](O)CC(=O)N2CCC3(CC3)[C@H](O)C2)CCN1C(=O)Nc1ccc(C(F)(F)F)c(Cl)c1` [Example 42, (S)-4-[(S)-2-Hydroxy-4-((S)-4-hydroxy-6-aza-spiro[2.5]oct-6-yl)-4-oxo-butyl]-2-methyl-3-oxo-piperazine-1-carboxylic acid (3-chloro-4-trifluoromethyl-phenyl)-amide], the half-inhibitory concentration (IC50) came out at 8.2 nM. For `C[C@H]1C(=O)N(C[C@H](O)CC(=O)N2CCC3(CC3)[C@H](O)C2)CCN1C(=O)Nc1ccc(C(F)(F)F)c(Cl)c1` [Example 43, (S)-4-[(R)-2-Hydroxy-4-((S)-4-hydroxy-6-aza-spiro[2.5]oct-6-yl)-4-oxo-butyl]-2-methyl-3-oxo-piperazine-1-carboxylic acid (3-chloro-4-trifluoromethyl-phenyl)-amide] the value was 4 nM.

With `C[C@H]1C(=O)N(CC(O)CC(=O)N2CCC3(CC3)[C@H](O)C2)CCN1C(=O)Nc1ccc(OC(F)(F)F)c(Cl)c1` (stereo partly drawn) [Example 44, (S)-4-[(R,S)-2-Hydroxy-4-((S)-4-hydroxy-6-aza-spiro[2.5]oct-6-yl)-4-oxo-butyl]-2-methyl-3-oxo-piperazine-1-carboxylic acid (3-chloro-4-trifluoromethoxy-phenyl)-amide], the IC50 was found to be 2.7 nM.

For `C[C@H]1C(=O)N(C[C@@H](O)CC(=O)N2CCC3(CC3)[C@H](O)C2)CCN1C(=O)Nc1ccc(OC(F)(F)F)c(Cl)c1` [Example 45, (S)-4-[(S)-2-hydroxy-4-((S)-4-hydroxy-6-aza-spiro[2.5]oct-6-yl)-4-oxo-butyl]-2-methyl-3-oxo-piperazine-1-carboxylic acid (3-chloro-4-trifluoromethoxy-phenyl)-amide], the IC50 was determined as 2 nM. With `C[C@H]1C(=O)N(C[C@H](O)CC(=O)N2CCC3(CC3)[C@H](O)C2)CCN1C(=O)Nc1ccc(OC(F)(F)F)c(Cl)c1` [Example 46, (S)-4-[(R)-2-hydroxy-4-((S)-4-hydroxy-6-aza-spiro[2.5]oct-6-yl)-4-oxo-butyl]-2-methyl-3-oxo-piperazine-1-carboxylic acid (3-chloro-4-trifluoromethoxy-phenyl)-amide] the figure was 4.2 nM; with `C[C@H]1C(=O)N(CC(O)CC(=O)N2CCC3(CC3)[C@H](O)C2)CCN1C(=O)Nc1ccc(C(F)(F)F)c(C(F)(F)F)c1` (stereo partly drawn) [Example 47, (S)-4-[(R,S)-2-Hydroxy-4-((S)-4-hydroxy-6-aza-spiro[2.5]oct-6-yl)-4-oxo-butyl]-2-methyl-3-oxo-piperazine-1-carboxylic acid (3,4-bis-trifluoromethyl-phenyl)-amide], 5.4 nM. Regarding `C[C@H]1C(=O)N(C[C@@H](O)CC(=O)N2CCC3(CC3)[C@H](O)C2)CCN1C(=O)Nc1ccc(C(F)(F)F)c(C(F)(F)F)c1` [Example 48, (S)-4-[(S)-2-Hydroxy-4-((S)-4-hydroxy-6-aza-spiro[2.5]oct-6-yl)-4-oxo-butyl]-2-methyl-3-oxo-piperazine-1-carboxylic acid (3,4-bis-trifluoromethyl-phenyl)-amide], the IC50 stood at 2.4 nM. For `C[C@H]1C(=O)N(C[C@H](O)CC(=O)N2CCC3(CC3)[C@H](O)C2)CCN1C(=O)Nc1ccc(C(F)(F)F)c(C(F)(F)F)c1` [Example 49, (S)-4-[(R)-2-hydroxy-4-((S)-4-hydroxy-6-aza-spiro[2.5]oct-6-yl)-4-oxo-butyl]-2-methyl-3-oxo-piperazine-1-carboxylic acid (3,4-bis-trifluoromethyl-phenyl)-amide] the value was 5.8 nM; for `C[C@H]1C(=O)N(CCC(C)(C)C(=O)N2CCC3(CC3)[C@H](O)C2)CCN1C(=O)Nc1ccc(C(F)(F)F)c(Cl)c1` [Example 50, (S)-4-[4-((S)-4-Hydroxy-6-aza-spiro[2.5]oct-6-yl)-3,3-dimethyl-4-oxo-butyl]-2-methyl-3-oxo-piperazine-1-carboxylic acid (3-chloro-4-trifluoromethyl-phenyl)-amide], 1140 nM.
